Data as given in the CheMixHub viscosity set.
± gives the uncertainty stated by the source.

Experiment: xn = mol fraction of the nth substance listed

CCC(N)C(=O)[O-].[Na+] (stereo unspecified) + O
viscosity [mPa·s], 101.3 kPa
Settings | x1 = 0.009 | x1 = 0.018 | x1 = 0.029 | x1 = 0.039 | x1 = 0.05 | x1 = 0.062
303.15 K | 1.034 ± 0.066 | 1.36 ± 0.083 | 1.815 ± 0.11 | 2.492 ± 0.17 | 3.501 ± 0.23 | 4.954 ± 0.26
308.15 K | 0.924 ± 0.059 | 1.217 ± 0.072 | 1.595 ± 0.096 | 2.167 ± 0.14 | 3.005 ± 0.19 | 4.223 ± 0.23
313.15 K | 0.836 ± 0.052 | 1.093 ± 0.063 | 1.417 ± 0.083 | 1.91 ± 0.12 | 2.608 ± 0.16 | 3.646 ± 0.2
318.15 K | 0.76 ± 0.046 | 0.98 ± 0.055 | 1.27 ± 0.073 | 1.695 ± 0.1 | 2.295 ± 0.14 | 3.173 ± 0.17
323.15 K | 0.697 ± 0.042 | 0.9 ± 0.049 | 1.143 ± 0.063 | 1.516 ± 0.091 | 2.029 ± 0.12 | 2.777 ± 0.14

CCCCCCCCCCCCCC[P+](CCCCCC)(CCCCCC)CCCCCC.c1c[n-]nn1 + O
Settings | viscosity [mPa·s]
298.15 K, 100 kPa, x2 = 0.8003 | 106 ± 3

CCCCN(CCO)CCO + O
viscosity [mPa·s], 101 kPa
Settings | 303.15 K | 308.15 K | 313.15 K | 318.15 K | 323.15 K
x1 = 0.0501 | 3.144 ± 0.13 | 2.695 ± 0.12 | 2.335 ± 0.12 | 2.041 ± 0.11 | 1.795 ± 0.11
x1 = 0.0999 | 6.924 ± 0.2 | 5.705 ± 0.17 | 4.763 ± 0.16 | 4.027 ± 0.14 | 3.434 ± 0.13
x1 = 0.15 | 11.35 ± 0.3 | 9.112 ± 0.25 | 7.428 ± 0.21 | 6.13 ± 0.18 | 5.123 ± 0.16
x1 = 0.2 | 15.8 ± 0.39 | 12.47 ± 0.32 | 10.01 ± 0.26 | 8.116 ± 0.22 | 6.674 ± 0.19
x1 = 0.3013 | 25.17 ± 0.58 | 19.3 ± 0.46 | 15.07 ± 0.36 | 11.97 ± 0.29 | 9.604 ± 0.25
x1 = 0.3988 | 32.99 ± 0.71 | 24.94 ± 0.57 | 19.22 ± 0.43 | 15.07 ± 0.34 | 11.96 ± 0.29
x1 = 0.4994 | 39.06 ± 0.79 | 29.14 ± 0.63 | 22.33 ± 0.47 | 17.44 ± 0.37 | 13.76 ± 0.31
x1 = 0.6027 | 42.39 ± 0.81 | 31.62 ± 0.64 | 24.2 ± 0.48 | 18.83 ± 0.38 | 14.84 ± 0.31
x1 = 0.7058 | 43.85 ± 0.78 | 32.83 ± 0.62 | 25.16 ± 0.47 | 19.65 ± 0.37 | 15.51 ± 0.31
x1 = 0.8009 | 43.72 ± 0.73 | 32.88 ± 0.59 | 25.37 ± 0.44 | 19.83 ± 0.35 | 15.71 ± 0.29
x1 = 0.899 | 42.96 ± 0.66 | 32.66 ± 0.54 | 25.3 ± 0.41 | 19.86 ± 0.32 | 15.82 ± 0.27

Nc1ccc(S(=O)(=O)[O-])cc1.[Na+] + O
viscosity [mPa·s], 101 kPa
Settings | x1 = 9e-05 | x1 = 0.00018 | x1 = 0.0009 | x1 = 0.0018 | x1 = 0.00448 | x1 = 0.00893 | x1 = 0.0133 | x1 = 0.0177
298.15 K | 0.899 ± 0.009 | 0.9 ± 0.009 | 0.915 ± 0.009 | 0.93 ± 0.009 | 0.984 ± 0.01 | 1.076 ± 0.011 | 1.174 ± 0.012 | 1.281 ± 0.011
318.15 K | 0.598 ± 0.006 | 0.599 ± 0.006 | 0.61 ± 0.006 | 0.62 ± 0.006 | 0.654 ± 0.006 | 0.71 ± 0.007 | 0.771 ± 0.007 | 0.838 ± 0.008

O=[N+]([O-])[O-].O=[N+]([O-])[O-].[Ni+2] + O
Settings | viscosity [mPa·s]
322.46 K, 100 kPa, x1 = 0.03889 | 1.225 ± 0.023

[Cs+].[I-] + O
310.15 K, 101 kPa
Settings | viscosity [mPa·s]
x1 = 0.000182 | 0.6958 ± 0.0061
x1 = 0.000913 | 0.6971 ± 0.0062
x1 = 0.001829 | 0.6934 ± 0.0062
x1 = 0.002695 | 0.6844 ± 0.0062
x1 = 0.003679 | 0.6676 ± 0.0062
x1 = 0.005197 | 0.6281 ± 0.006
x1 = 0.005988 | 0.6009 ± 0.0058

[F-].[Na+] + O
viscosity [mPa·s], 101 kPa
Settings | x1 = 0.0009 | x1 = 0.0018 | x1 = 0.002 | x1 = 0.0027 | x1 = 0.0036 | x1 = 0.005 | x1 = 0.009
303.15 K | 0.809 ± 0.007 | 0.82 ± 0.007 | 0.819 ± 0.007 | 0.826 ± 0.007 | 0.835 ± 0.007 | 0.853 ± 0.008 | 0.896 ± 0.008
308.15 K | 0.734 ± 0.007 | 0.746 ± 0.007 | 0.747 ± 0.007 | 0.755 ± 0.007 | 0.761 ± 0.007 | 0.775 ± 0.007 | 0.81 ± 0.007
313.15 K | 0.667 ± 0.006 | 0.682 ± 0.006 | – | 0.688 ± 0.006 | 0.694 ± 0.006 | 0.707 ± 0.006 | 0.738 ± 0.007
318.15 K | 0.61 ± 0.006 | 0.621 ± 0.006 | 0.623 ± 0.006 | 0.629 ± 0.006 | 0.635 ± 0.006 | 0.648 ± 0.006 | 0.675 ± 0.006

Nc1cccc(Cl)c1 + O=C1CCCCC1
viscosity [mPa·s], 100 kPa
Settings | x1 = 0.0814 | x1 = 0.1705 | x1 = 0.2826 | x1 = 0.3886 | x1 = 0.4996 | x1 = 0.5895 | x1 = 0.6899 | x1 = 0.7755 | x1 = 0.8882
303.15 K | 1.954 ± 0.1 | 2.11 ± 0.1 | 2.323 ± 0.1 | 2.542 ± 0.1 | 2.793 ± 0.1 | 3.014 ± 0.1 | 3.28 ± 0.1 | 3.525 ± 0.1 | 3.875 ± 0.1
308.15 K | 1.779 ± 0.1 | 1.92 ± 0.1 | 2.112 ± 0.1 | 2.31 ± 0.1 | 2.535 ± 0.1 | 2.733 ± 0.1 | 2.971 ± 0.1 | 3.191 ± 0.1 | 3.503 ± 0.1
313.15 K | 1.589 ± 0.1 | 1.716 ± 0.1 | 1.888 ± 0.1 | 2.065 ± 0.1 | 2.266 ± 0.1 | 2.442 ± 0.1 | 2.655 ± 0.1 | 2.85 ± 0.1 | 3.128 ± 0.1
318.15 K | 1.382 ± 0.1 | 1.495 ± 0.1 | 1.648 ± 0.1 | 1.805 ± 0.1 | 1.984 ± 0.1 | 2.141 ± 0.1 | 2.33 ± 0.1 | 2.505 ± 0.1 | 2.753 ± 0.1

CC(=O)CCC(=O)O + O=C(O)[C@@H]1CCCN1
100 kPa, x1 = 0.667
Settings | viscosity [mPa·s]
303.15 K | 955 ± 130
308.15 K | 636.1 ± 81
313.15 K | 432.5 ± 52
318.15 K | 301 ± 34
323.15 K | 219.6 ± 24

CCCCCCCCCCCCCC[P+](CCCCCC)(CCCCCC)CCCCCC.c1c[n-]nn1 + O=C=O
Settings | viscosity [mPa·s]
298.15 K, 100 kPa, x2 = 0.38 | 419 ± 17

CCCCN(CCO)CCCC + O=S=O
303.15 K, 100 kPa
Settings | viscosity [mPa·s]
x2 = 0.17 | 19.3
x2 = 0.33 | 198.3
x2 = 0.45 | 2527

CCC(=O)O + O=[N+]([O-])c1ccccc1
viscosity [mPa·s], 101 kPa
Settings | x1 = 0.1311 | x1 = 0.2535 | x1 = 0.3679 | x1 = 0.4752 | x1 = 0.5759 | x1 = 0.6708 | x1 = 0.7601 | x1 = 0.8445 | x1 = 0.9244
298.15 K | 1.763 ± 0.013 | 1.711 ± 0.013 | 1.663 ± 0.013 | 1.612 ± 0.012 | 1.551 ± 0.012 | 1.478 ± 0.011 | 1.392 ± 0.011 | 1.291 ± 0.01 | 1.175 ± 0.0092
308.15 K | 1.469 ± 0.011 | 1.452 ± 0.011 | 1.428 ± 0.011 | 1.394 ± 0.011 | 1.346 ± 0.01 | 1.285 ± 0.01 | 1.21 ± 0.0095 | 1.121 ± 0.0088 | 1.019 ± 0.0081
318.15 K | 1.35 ± 0.01 | 1.42 ± 0.011 | 1.421 ± 0.011 | 1.376 ± 0.011 | 1.301 ± 0.01 | 1.207 ± 0.0095 | 1.106 ± 0.0087 | 1.002 ± 0.008 | 0.9012 ± 0.0072

Nc1cccc(Cl)c1 + O=[N+]([O-])c1ccccc1
viscosity [mPa·s], 100 kPa
Settings | x1 = 0.5896 | x1 = 0.6785 | x1 = 0.7825
303.15 K | – | – | 3.915 ± 0.1
318.15 K | 2.615 ± 0.1 | 2.755 ± 0.1 | –

OC[C@@H](O)[C@@H](O)CO + OC[C@@H](O)[C@H](O)[C@@H](O)CO
101 kPa, x1 = 0.36
Settings | viscosity [mPa·s]
313 K | 31330
318 K | 18000
323 K | 10110

[F-].[Na+] + [2H]O[2H]
viscosity [mPa·s], 101 kPa
Settings | 298.15 K | 308.15 K | 318.15 K
x1 = 0.0054 | 1.159 ± 0.013 | 0.913 ± 0.01 | 0.747 ± 0.008
x1 = 0.0122 | 1.246 ± 0.014 | 0.98 ± 0.011 | 0.8 ± 0.009
x1 = 0.0163 | 1.326 ± 0.015 | 1.043 ± 0.012 | 0.857 ± 0.01

[K+].[O]=[Mn](=[O])(=[O])[O-] + [2H]O[2H]
viscosity [mPa·s], 101 kPa
Settings | x1 = 0.0021 | x1 = 0.0034 | x1 = 0.0052 | x1 = 0.0062
298.15 K | 1.101 ± 0.009 | 1.092 ± 0.009 | 1.079 ± 0.009 | 1.082 ± 0.009
308.15 K | 0.873 ± 0.007 | 0.861 ± 0.007 | 0.853 ± 0.007 | 0.85 ± 0.007
318.15 K | 0.717 ± 0.006 | 0.709 ± 0.006 | 0.703 ± 0.006 | 0.704 ± 0.006
